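Where inhibition never reached the appropriate level, the endpoint shown equals the highest concentration tested. Otherwise, values were interpolated linearly from a five-concentration, 48-hour dose response in 96-well plates. At the GI50, growth is halved.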 The source made the active and inactive calls. Cut-off read from the data, not from the text of the source: active = GI50 up to about 1.1 µM and inactive = higher.
Experiments:
Experiment in all cases: growth of human tumour cells (NCI), 48 h
CAKI-1 = test system: CAKI-1
DLD-1 = test system: DLD-1
DMS-114 = test system: DMS-114
DMS-273 = test system: DMS-273
HCT-15 = test system: HCT-15
HOP-18 = test system: HOP-18
HOP-62 = test system: HOP-62
KM-20L2 = test system: KM-20L2
M19-MEL = test system: M19-MEL
MCF7 = test system: MCF7
NCI-H522 = test system: NCI-H522
NCI/ADR-RES = test system: NCI/ADR-RES
SNB-78 = test system: SNB-78

Row | Compound | GI50 (CAKI-1) | GI50 (DLD-1) | GI50 (DMS-114) | GI50 (DMS-273) | GI50 (HCT-15) [µM] | GI50 (HOP-18) | GI50 (HOP-62) | GI50 (KM-20L2) | GI50 (M19-MEL) | GI50 (MCF7) | GI50 (NCI-H522) | GI50 (NCI/ADR-RES) | GI50 (SNB-78)
1 | COc1cc2c(oc(=O)c3cc(C)cc(OC)c32)c2c(C3OC(C)C(O)C(C)(O)C3O)ccc(O)c12 (stereo not given) | 0.432 µM (active) | 0.845 µM (active) | 0.315 µM (active) | 0.336 µM (active) | 0.662 | 1.41 µM (inactive) | 0.284 µM (active) | 0.664 µM (active) | 0.706 µM (active) | 0.237 µM (active) | 0.389 µM (active) | 0.622 µM (active) | 0.755 µM (active)
2 | O=C1NC(=O)C(CCO)(c2ccccc2)C(=O)N1 | – | > 100 µM (inactive) | > 100 µM (inactive) | > 100 µM (inactive) | > 100 | > 100 µM (inactive) | > 100 µM (inactive) | > 100 µM (inactive) | > 100 µM (inactive) | > 100 µM (inactive) | > 100 µM (inactive) | > 100 µM (inactive) | > 100 µM (inactive)
3 | CCOC(=O)c1c[nH]c2cc3c(cc2c1=O)CCS3(=O)=O.CCOC(=O)c1c[nH]c2ccc3c(c2c1=O)S(=O)(=O)CC3 | > 100 µM (inactive) | > 100 µM (inactive) | > 100 µM (inactive) | > 100 µM (inactive) | > 100 | 97.1 µM (inactive) | > 100 µM (inactive) | > 100 µM (inactive) | > 100 µM (inactive) | 83.8 µM (inactive) | > 100 µM (inactive) | > 100 µM (inactive) | > 100 µM (inactive)
4 | Cc1ccc(C#CS(=O)(=O)C(F)(F)F)cc1 | – | > 100 µM (inactive) | > 100 µM (inactive) | > 100 µM (inactive) | > 100 | > 100 µM (inactive) | > 100 µM (inactive) | > 100 µM (inactive) | > 100 µM (inactive) | > 100 µM (inactive) | > 100 µM (inactive) | > 100 µM (inactive) | > 100 µM (inactive)

Source: ChEMBL document CHEMBL1201862, “PubChem BioAssay data set” (2004)
